Tests used:
BMPR1B kinase = BMPR1B kinase (Homo sapiens, UniProt O00238); test: Kinase activity screening (330 kinases, HTRF or ADP-Glo); assay type: biochemical; details: compound 2.5 mM, 25 nL in DMSO added to 5 µL reaction; Figure 1A
Procedure: (§1) A total of 330 kinase candidates (15-50 nM, 2.5 µL) were mixed with compound II-1 (2.5 mM, 25 nL, prepared in DMSO) and incubated at 25 °C for 10 minutes. Then, a mixture of kinase peptide substrate (0.2 mg/mL; supplier: GenScript) and ATP (10-60 µM; supplier: Promega; product number: V915B) was added (total 2.5 µL, prepared in assay buffer), and the reaction was carried out at 25 °C for 60-120 minutes. Finally, the reaction products were quantified using HTRF1 or ADP-Glo2 methods. During the kinase activity assay, the consumption of each substrate was kept below 10%, and each kinase assay was performed in duplicate.

BMPR2 = molecular target: T1, BMPR2 (Homo sapiens, UniProt Q13873); test: Kinase activity assay (HTRF or ADP-Glo); assay type: biochemical
T1 sequence (Q13873 27-1038): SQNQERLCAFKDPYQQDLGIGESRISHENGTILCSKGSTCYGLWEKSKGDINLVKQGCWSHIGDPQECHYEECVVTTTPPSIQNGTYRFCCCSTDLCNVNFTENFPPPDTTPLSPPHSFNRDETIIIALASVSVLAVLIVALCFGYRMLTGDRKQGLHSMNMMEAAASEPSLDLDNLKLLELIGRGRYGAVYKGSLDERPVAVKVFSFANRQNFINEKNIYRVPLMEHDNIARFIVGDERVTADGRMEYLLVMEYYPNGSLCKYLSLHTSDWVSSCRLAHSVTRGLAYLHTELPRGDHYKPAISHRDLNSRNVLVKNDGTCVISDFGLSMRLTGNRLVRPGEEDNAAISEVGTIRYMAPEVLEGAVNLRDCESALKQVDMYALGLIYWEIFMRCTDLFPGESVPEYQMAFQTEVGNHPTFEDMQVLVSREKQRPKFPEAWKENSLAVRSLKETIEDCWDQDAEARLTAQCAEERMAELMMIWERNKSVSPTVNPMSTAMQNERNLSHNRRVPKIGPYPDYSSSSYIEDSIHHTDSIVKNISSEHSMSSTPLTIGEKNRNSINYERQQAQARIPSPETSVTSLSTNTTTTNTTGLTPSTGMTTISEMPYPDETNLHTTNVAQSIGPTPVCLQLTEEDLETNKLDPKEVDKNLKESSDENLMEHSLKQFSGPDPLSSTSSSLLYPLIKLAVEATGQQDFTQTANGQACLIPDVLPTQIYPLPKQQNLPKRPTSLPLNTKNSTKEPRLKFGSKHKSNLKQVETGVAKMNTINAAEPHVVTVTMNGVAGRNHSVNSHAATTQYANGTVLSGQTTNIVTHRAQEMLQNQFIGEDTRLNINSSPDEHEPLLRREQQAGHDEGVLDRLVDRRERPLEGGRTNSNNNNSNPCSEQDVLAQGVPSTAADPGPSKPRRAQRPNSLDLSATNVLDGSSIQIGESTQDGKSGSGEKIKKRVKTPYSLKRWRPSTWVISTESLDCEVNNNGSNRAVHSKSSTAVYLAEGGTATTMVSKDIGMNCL
Procedure: as §1

TGFBR1 = molecular target: T2, TGFBR1 (Homo sapiens, UniProt P36897); test: Kinase activity assay (HTRF or ADP-Glo); assay type: biochemical
T2 sequence (P36897 34-503): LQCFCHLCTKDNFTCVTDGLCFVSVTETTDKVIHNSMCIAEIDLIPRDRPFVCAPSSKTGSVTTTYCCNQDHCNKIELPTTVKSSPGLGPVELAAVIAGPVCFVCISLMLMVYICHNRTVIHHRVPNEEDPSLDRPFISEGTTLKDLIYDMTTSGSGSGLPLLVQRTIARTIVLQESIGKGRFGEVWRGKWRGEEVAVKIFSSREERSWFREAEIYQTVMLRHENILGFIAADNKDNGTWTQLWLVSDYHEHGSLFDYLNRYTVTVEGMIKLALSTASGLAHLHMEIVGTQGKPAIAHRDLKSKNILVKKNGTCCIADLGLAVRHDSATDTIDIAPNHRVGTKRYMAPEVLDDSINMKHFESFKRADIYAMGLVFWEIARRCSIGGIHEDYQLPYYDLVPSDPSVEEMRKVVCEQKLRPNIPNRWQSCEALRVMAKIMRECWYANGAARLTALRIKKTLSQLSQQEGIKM
Procedure: as §1

SMAD2/3 = test: Western blot of TGF signaling pathway in H1 cells; assay type: cell-based, human; details: 6 µL of 30 µM compound in 2 mL, within 24 hours of treatment, Figure 3
Procedure: (§2) The inhibitory effect of the pyrazolecarbonyl piperazinone compounds on the BMP signaling pathway was further validated by Western blot analysis. Commercial human pluripotent stem cell line H1 was seeded in a 6-well plate at 1.5 × 10^6 cells per well in 2 mL of culture medium. After one day of culture, the medium was replaced, and 6 µL of 30 µM pyrazolecarbonyl piperazinone compound II-1 was added. Cells were treated for 12, 24, and 36 hours, after which the cells were harvested and protein samples were prepared according to the instructions of a commercial kit (Beyotime Biotechnology; Cat. No. P0013). Western blot analysis was performed as described in the literature (H. Zhang et al., 2022; N. Zhang et al., 2021). […] Table 2. Antibody Information

SMAD1/5/8 = test: Western blot of BMP signaling pathway in H1 cells; assay type: cell-based, human; details: 6 µL of 30 µM compound in 2 mL, within 24 hours of treatment, Figure 3
Procedure: as §2

pluripotent stem cell H9 = test: Neural induction of H9 cells, marker gene mRNA by RNA-seq; assay type: cell-based, human; details: H9, increasing concentrations, day 7 and day 14, P < 0.05 t-test
Procedure: (§3) The induction medium comprises Dulbecco's Modified Eagle Medium (DMEM), Minimum Essential Medium Non-Essential Amino Acids (MEM NEAA, Cat. No. 11140076, Thermo Fisher), 4-Hydroxy-TEMPO (50 µM), D(+)-galactose (12.5 µg/mL), vitamin E (1 µg/mL), vitamin B12 (1.2 µM), vitamin C (64 mg/L), progesterone (6.3 ng/mL), 1,4-butanediamine (23 µg/mL), luteolin (60 µM), sodium chloride (0.5 g/L), […] (13.6 µg/L), insulin (22 µg/mL), recombinant human transferrin (100 ng/mL), and the BMPR1B inhibitor of the present invention (induction medium A uses BMPR1B inhibitor II-1; induction medium B uses BMPR1B inhibitor II-13).
(§4) Commercial human pluripotent stem cell lines H1, H9, and induced pluripotent stem cells (iPSCs) were used. The iPSCs were prepared according to the "reprogramming medium for the culture of reprogrammed iPSCs" using CD34+ cells (CN109628383A, Example 2). T25 culture flasks were coated with Matrigel (STEMCELL Technologies) and incubated at 37°C for at least one hour. Cells were seeded at 1 × 10^6 per T25 flask for expansion and passaging.
(§5) 6-well plates were coated with 50 µg/mL poly-L-lysine (SIGMA, Cat. No. P6407) and incubated at 37°C for at least 3 hours, followed by coating with 5 µg/mL laminin (SIGMA ALDRICH, Cat. No. 12020) and further incubation at 37°C for at least 3 hours. […]

H1 cells = test: Neural induction of H1 cells, marker gene mRNA by RNA-seq; assay type: cell-based, human; details: H1, increasing concentrations, day 7 and day 14; Figure 5
Procedure: as §3, §4, §5

[1] = test system: induced pluripotent stem cells (iPSCs); test: Neural induction of iPSCs, marker gene mRNA by RNA-seq; assay type: cell-based, human; details: iPSCs vs untreated control, day 7 and day 14, dose-dependent; Figure 6
Procedure: as §3, §4
6-well plates were coated with 50 µg/mL poly-L-lysine (SIGMA, Cat. No. P6407) and incubated at 37°C for at least 3 hours, followed by coating with 5 µg/mL laminin (SIGMA ALDRICH, Cat. No. 12020) and further incubation at 37°C for at least 3 hours. When pluripotent stem cells reached 70% confluency, they were digested with EDTA at 37°C for 5 minutes, and digestion was terminated using DMEM. Cells were washed, centrifuged, and reseeded in T25 flasks at 2 × 10^5 cells per flask. Induction was carried out using the aforementioned induction media: H9 cells were induced with induction medium A, while H1 cells and iPSCs were induced with induction medium B. The medium was refreshed daily until day 14.
Samples were collected on day 7 and day 14 of induction. RNA was processed using the VAHTS Universal V8 RNA-seq Library Prep Kit for Illumina (Vazyme, NR605-01/02), and sequencing was performed on an Illumina platform. […]

[2] = at the same concentration as the screen
[3] = different concentrations, up to 12.5 µM, threefold serial dilution, Figure 1B, C

Chain of BMPR1B kinase (O00238 14-502): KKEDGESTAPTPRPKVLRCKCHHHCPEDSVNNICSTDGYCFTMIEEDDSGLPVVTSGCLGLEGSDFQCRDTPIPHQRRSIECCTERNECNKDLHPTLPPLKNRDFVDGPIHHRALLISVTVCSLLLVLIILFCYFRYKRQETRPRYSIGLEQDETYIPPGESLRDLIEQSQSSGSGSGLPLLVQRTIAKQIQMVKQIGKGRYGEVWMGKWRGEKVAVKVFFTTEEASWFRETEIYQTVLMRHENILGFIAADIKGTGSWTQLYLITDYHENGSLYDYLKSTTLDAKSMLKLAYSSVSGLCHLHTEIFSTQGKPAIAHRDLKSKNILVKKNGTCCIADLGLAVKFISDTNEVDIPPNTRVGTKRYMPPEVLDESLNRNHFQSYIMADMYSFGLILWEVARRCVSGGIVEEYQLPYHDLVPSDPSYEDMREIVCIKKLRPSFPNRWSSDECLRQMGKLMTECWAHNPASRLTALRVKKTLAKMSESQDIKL

Row | inhibitory activity against BMPR1B kinase (BMPR1B kinase) | inhibition of kinase activity of BMPR2 (BMPR2; [2]) | inhibition of BMPR2 kinase (BMPR2; [3]) | inhibition of kinase activity of TGFBR1 (TGFBR1; [2]) | inhibition of TGFBR1 kinase (TGFBR1; [3]) | Structure (SMILES) | phosphorylation of SMAD2/3 (SMAD2/3) | phosphorylation levels of SMAD1/5/8 (SMAD1/5/8) | neural progenitor marker PAX6 expression (pluripotent stem cell H9) | pluripotency marker NANOG expression (pluripotent stem cell H9) | glial progenitor marker gene Sox9 expression (H1 cells) | neural marker gene MAP2 expression (H1 cells) | neural differentiation marker VIM expression [1] | neural progenitor marker Sox1 expression [1] | neural progenitor marker Sox5 expression [1]
1 | significant inhibitory activity | did not inhibit | no inhibition | did not inhibit | no inhibition | O=C1CN(C(=O)c2n[nH]c3c2CCC3)[C@H]2CCCC[C@@H]2N1 [II-1, (4aS,8aS)-4-(1,4,5,6-tetrahydrocyclopenta[c]pyrazole-3-carbonyl)octahydroquinoxalin-2(1H)-one] | did not inhibit | significantly suppressed | corresponding increase | dose-dependent decrease | – | – | – | – | –
2 | – | – | – | – | – | O=C1CN(C(=O)c2n[nH]c3ccccc23)[C@H]2CCCC[C@@H]2N1 [II-13, (4aS,8aS)-4-(1H-indazole-3-carbonyl)octahydroquinoxalin-2(1H)-one] | – | – | – | – | dose-dependent response | dose-dependent response | significantly increased expression | significantly increased expression | significantly increased expression
